# Reference: patent publication US7510843B2, “Use of a polypeptide for detecting, preventing or treating a pathological condition associated with a degenerative, neurological or autoimmune disease” (Biomerieux S.A., priority 1999, dated 2009)
# How the values were obtained:
# [1] = system: GM2AP and Saposin B proteins in the urines; assay: Elisa assay of GM2AP and Saposin B in the urine of an MS patient after a treatment flash; format: in vivo, human; conditions: MS patient No. 2, progressive form, up to 23 days; increase again, high at D60
# Description: (§1) Urines of this patient were collected during the progression of their disease. The patient was hospitalized on D0 for an attack.
# [2] = Clinical monitoring of an MS patient after a treatment flash; format: in vivo, human; conditions: MS patient No. 2, progressive form, flash on D1 after attack; worsening signs at D60
# Description: as §1
smiles,measurement,setting,value
"O=P1(N(CCCl)CCCl)NCCCO1 (centres unmarked) [Endoxan, cyclophosphamide]",GM2AP and Saposin B concentrations in urine over time after the flash,[1],decrease gradually over time
same,clinical effect of the flash,[2],clinical improvement
